Reference: US9113629B2, “4-amino-6-(4-substituted-phenyl)-picolinates and 6-amino-2-(4-substituted-phenyl)-pyrimidine-4-carboxylates and their use as herbicides” (DOW AGROSCIENCES LLC, priority 2013, dated 2015)

Columns and labels:
[1] = Post-emergent Test III, herbicidal activity in wheat and barley; format: in vivo, Lolium multiflorum, Lolium rigidum; conditions: Lolium multiflorum, post-emergence, 504 h, Table 9, post-emergent, 21 d, read-out: Visual Growth Reduction (%) 21 Days After Application LOLSS; for pest or weed control at 35 g/ha: 35 g ai/ha; for pest or weed control at 70 g/ha: 70 g ai/ha; for pest or weed control at 140 g/ha: 140 g ai/ha
Description: (§1) Post-emergent Test III. Seeds of the desired test plant species were planted in Sun Gro MetroMix® 306 planting mixture, which typically has a pH of 6.0 to 6.8 and an organic matter content of about 30 percent, in plastic pots with a surface area of 103.2 square centimeters (cm^2). When required to ensure good germination and healthy plants, a fungicide treatment and/or other chemical or physical treatment was applied. The plants were grown for 7-36 days (d) in a greenhouse with an approximate 14 hour (h) photoperiod which was maintained at about 18° C. during the day and 17° C. during the night. Nutrients and water were added on a regular basis and supplemental lighting was provided with overhead metal halide 1000-Watt lamps as necessary. The plants were employed for testing when they reached the second or third true leaf stage.
(§2) A weighed amount, determined by the highest rate to be tested, of each test compound was placed in a 25 mL glass vial and was dissolved in 4 mL of a 97:3 v/v mixture of acetone and DMSO to obtain concentrated stock solutions. […] The concentrated stock solutions obtained were diluted with 20 mL of an aqueous mixture containing acetone, water, isopropyl alcohol, DMSO, Agri-Dex crop oil concentrate, and X-77 surfactant in a 48:39:10:1.5:1.5:0.02 v/v ratio to obtain spray solutions containing the highest application rates. Additional application rates were obtained by serial dilution of 12 mL of the high rate solution into a solution containing 2 mL of 97:3 v/v mixture of acetone and DMSO and 10 mL of an aqueous mixture containing acetone, water, isopropyl alcohol, DMSO, Agri-Dex crop oil concentrate, and X-77 surfactant in a 48:39:10:1.5:1.5:0.02 v/v ratio to obtain ½×, ¼×, ⅛× and 1/16× rates of the high rate. Compound requirements are based upon a 12 mL application volume at a rate of 187 liters per hectare (L/ha). Formulated compounds were applied to the plant material with an overhead Mandel track sprayer equipped with 8002E nozzles calibrated to deliver 187 L/ha over an application area of 0.503 square meters at a spray height of 18 inches (43 cm) above the average plant canopy height. Control plants were sprayed in the same manner with the solvent blank.
(§3) The treated plants and control plants were placed in a greenhouse as described above and watered by subirrigation to prevent wash-off of the test compounds. After 21 d, the condition of the test plants as compared with that of the untreated plants was determined visually and scored on a scale of 0 to 100 percent where 0 corresponds to no injury and 100 corresponds to complete kill.
(§4) By applying the well-accepted probit analysis as described by J. Berkson in Journal of the American Statistical Society, 48, 565 (1953) and by D. Finney in “Probit Analysis” Cambridge University Press (1952), herbicidal injury of a specific compound at various rates can be used to calculate GR20, GR50, GR80 and GR90 values, which are defined as growth reduction factors that correspond to the effective dose of herbicide required to provide plant growth reduction (GR) of 20 percent, 50 percent, 80 percent and 90 percent, respectively. Probit analysis was applied to data collected from multiple dose rates of individual compounds utilizing the procedures explained in the following examples. The analysis of those dose rates is captured in the following tables.

[2] = test system: APESV: bentgrass (Apera spica-venti); experiment: as above; format: in vivo; conditions: Table 9, 21 d; for pest or weed control at 35 g/ha / pest or weed control at 70 g/ha / pest or weed control at 140 g/ha: Apera spica-venti, post-emergence, 504 h, post-emergent, read-out: Visual Growth Reduction (%) 21 Days After Application APESV; for pest or weed control at 35 g/ha: 35 g ai/ha; for pest or weed control at 70 g/ha: 70 g ai/ha; for GR50 APESV: dose for 50 percent growth reduction; for GR50 APESV / GR80 APESV: probit analysis; for GR80 APESV: dose for 80 percent growth reduction; for pest or weed control at 140 g/ha: 140 g ai/ha
Description: as §1, §2, §3, §4

[3] = test system: HORSS: barley, including spring and winter (Hordeum vulgare); experiment: as above; format: in vivo; conditions: Table 9, 21 d; for pest or weed control at 35 g/ha / pest or weed control at 70 g/ha / pest or weed control at 140 g/ha: Hordeum vulgare, post-emergence, 504 h, post-emergent, read-out: Visual Growth Reduction (%) 21 Days After Application HORSS; for pest or weed control at 35 g/ha: 35 g ai/ha; for pest or weed control at 70 g/ha: 70 g ai/ha; for GR20 HORSS: dose for 20 percent growth reduction, probit analysis; for pest or weed control at 140 g/ha: 140 g ai/ha
Description: as §1, §2, §3, §4

[4] = test system: KCHSC: kochia (Kochia scoparia); experiment: as above; format: in vivo; conditions: Table 9, 21 d; for pest or weed control at 35 g/ha / pest or weed control at 70 g/ha / pest or weed control at 140 g/ha: Bassia scoparia, post-emergence, 504 h, post-emergent, read-out: Visual Growth Reduction (%) 21 Days After Application KCHSC; for pest or weed control at 35 g/ha: 35 g ai/ha; for pest or weed control at 70 g/ha: 70 g ai/ha; for GR50 KCHSC: dose for 50 percent growth reduction; for GR50 KCHSC / GR80 KCHSC: probit analysis; for GR80 KCHSC: dose for 80 percent growth reduction; for pest or weed control at 140 g/ha: 140 g ai/ha
Description: as §1, §2, §3, §4

[5] = test system: LOLSS: ryegrass including, Italian ryegrass (Lolium multiflorum), rigid ryegrass (Lolium rigidum), annual ryegrass (Lolium multiflorum subsp. Gaudini); experiment: as above; format: in vivo; conditions: Table 9, probit analysis, 21 d; for GR50 LOLSS: dose for 50 percent growth reduction; for GR80 LOLSS: dose for 80 percent growth reduction
Description: as §1, §2, §3, §4

[6] = test system: SETVI: green foxtail (Setaria viridis); experiment: as above; format: in vivo; conditions: Table 9, 21 d; for pest or weed control at 35 g/ha / pest or weed control at 70 g/ha / pest or weed control at 140 g/ha: Setaria viridis, post-emergence, 504 h, post-emergent, read-out: Visual Growth Reduction (%) 21 Days After Application SETVI; for pest or weed control at 35 g/ha: 35 g ai/ha; for pest or weed control at 70 g/ha: 70 g ai/ha; for GR50 SETVI: dose for 50 percent growth reduction; for GR50 SETVI / GR80 SETVI: probit analysis; for GR80 SETVI: dose for 80 percent growth reduction; for pest or weed control at 140 g/ha: 140 g ai/ha
Description: as §1, §2, §3, §4

[7] = test system: TRZSS: wheat, including spring and winter (Triticum aestivum); experiment: as above; format: in vivo; conditions: Table 9, 21 d; for GR20 TRZSS: dose for 20 percent growth reduction, probit analysis; for pest or weed control at 35 g/ha / pest or weed control at 70 g/ha / pest or weed control at 140 g/ha: Triticum aestivum, post-emergence, 504 h, post-emergent, read-out: Visual Growth Reduction (%) 21 Days After Application TRZSS; for pest or weed control at 35 g/ha: 35 g ai/ha; for pest or weed control at 70 g/ha: 70 g ai/ha; for pest or weed control at 140 g/ha: 140 g ai/ha
Description: as §1, §2, §3, §4

| Compound | pest or weed control at 35 g/ha [1] | pest or weed control at 70 g/ha [1] | pest or weed control at 35 g/ha [2] | pest or weed control at 70 g/ha [2] | GR50 APESV [2] | GR80 APESV [2] | pest or weed control at 35 g/ha [3] | pest or weed control at 70 g/ha [3] | GR20 HORSS [3] | pest or weed control at 35 g/ha [4] | pest or weed control at 70 g/ha [4] | GR50 KCHSC [4] | GR80 KCHSC [4] | GR50 LOLSS [5] | GR80 LOLSS [5] | pest or weed control at 35 g/ha [6] | pest or weed control at 70 g/ha [6] | GR50 SETVI [6] | GR80 SETVI [6] | GR20 TRZSS [7] | also measured |
| --- | --- | --- | --- | --- | --- | --- | --- | --- | --- | --- | --- | --- | --- | --- | --- | --- | --- | --- | --- | --- | --- |
| C=Cc1c(C(=O)O)nc(-c2ccc(C#N)cc2)c(F)c1N [Compound 150] | 0 to 29% | 0 to 29% | 0 to 29% | 0 to 29% | >140 g ai/ha | >140 g ai/ha | 30 to 44% | 45 to 59% | 8 g ai/ha | 60 to 74% | 60 to 74% | 7 g ai/ha | >140 g ai/ha | >140 g ai/ha | >140 g ai/ha | 0 to 29% | 30 to 44% | 79 g ai/ha | >140 g ai/ha | 1 g ai/ha | pest or weed control at 35 g/ha [7]: 60 to 74%; pest or weed control at 70 g/ha [7]: 60 to 74% |
| Nc1c(F)c(-c2cc(F)c(Br)cc2F)nc(C(=O)O)c1Cl [Compound 42, 4-amino-6-(4-bromo-2,5-difluorophenyl)-3-chloro-5-fluoropicolinic acid] | 30 to 44% | 45 to 59% | 85 to 94% | 85 to 94% | 7 g ai/ha | 22 g ai/ha | 85 to 94% | 85 to 94% | 1 g ai/ha | 85 to 94% | 60 to 74% | 1 g ai/ha | 1 g ai/ha | 76 g ai/ha | >140 g ai/ha | 85 to 94% | 85 to 94% | 1 g ai/ha | 19 g ai/ha | 1 g ai/ha | pest or weed control at 140 g/ha [1]: 75 to 84%; pest or weed control at 140 g/ha [2]: 95 to 100%; pest or weed control at 140 g/ha [3]: 95 to 100%; pest or weed control at 140 g/ha [4]: 95 to 100%; pest or weed control at 140 g/ha [6]: 95 to 100%; pest or weed control at 35 g/ha [7]: 85 to 94%; pest or weed control at 70 g/ha [7]: 85 to 94%; pest or weed control at 140 g/ha [7]: 95 to 100% |
| COC(=O)c1nc(-c2ccc(I)cc2)c(Cl)c(N)c1Cl [Compound 96] | 45 to 59% | 60 to 74% | 30 to 44% | 30 to 44% | 125 g ai/ha | >140 g ai/ha | 85 to 94% | 95 to 100% | 1 g ai/ha | 0 to 29% | 60 to 74% | 79 g ai/ha | >140 g ai/ha | 48 g ai/ha | >140 g ai/ha | 0 to 29% | 60 to 74% | 72 g ai/ha | 128 g ai/ha | 1 g ai/ha | pest or weed control at 140 g/ha [1]: 60 to 74%; pest or weed control at 140 g/ha [2]: 45 to 59%; pest or weed control at 140 g/ha [3]: 95 to 100%; pest or weed control at 140 g/ha [4]: 60 to 74%; pest or weed control at 140 g/ha [6]: 75 to 84%; pest or weed control at 35 g/ha [7]: 85 to 94%; pest or weed control at 70 g/ha [7]: 85 to 94%; pest or weed control at 140 g/ha [7]: 95 to 100% |
| Nc1c(Cl)c(C(=O)O)nc(-c2ccc(I)cc2)c1Cl [Compound 173] | 30 to 44% | 45 to 59% | 60 to 74% | 75 to 84% | 27 g ai/ha | 59 g ai/ha | 85 to 94% | 95 to 100% | 1 g ai/ha | 30 to 44% | 45 to 59% | 60 g ai/ha | 131 g ai/ha | 119 g ai/ha | >140 g ai/ha | 30 to 44% | 45 to 59% | 54 g ai/ha | 104 g ai/ha | 1 g ai/ha | pest or weed control at 35 g/ha [7]: 75 to 84%; pest or weed control at 70 g/ha [7]: 85 to 94% |
